From the supplement of paper PMC10307832

Columns and labels:
Assay in all cases: relative viability (nuclei count vs DMSO), 5 days (fraction); higher = more cells survive
OSI-027 + Foretinib = compound: COc1cccc2cc(-c3nc([C@H]4CC[C@H](C(=O)O)CC4)n4ncnc(N)c34)[nH]c12 [OSI-027] + COc1cc2c(Oc3ccc(NC(=O)C4(C(=O)Nc5ccc(F)cc5)CC4)cc3F)ccnc2cc1OCCCN1CCOCC1 [Foretinib] (partner 0.25 µM)
How it was run: (§1)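 Lung cancer cell lines in 1536-well plates were dosed by pin tool the day after seeding, either with one drug alone or with a fixed anchor-drug dose plus five library-drug doses (not always all listed) in √10 steps. After 5 days, cells were fixed and their nuclei stained in one step (final 0.05% Triton X-100, 1% formaldehyde, 1 ug/ml Hoechst), then counted on 4× images. Relative viability is the nuclei count in treated wells divided by that in vehicle wells. Values are medians of duplicate plates.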

Alpelisib + Linsitinib = compound: Cc1nc(NC(=O)N2CCC[C@H]2C(N)=O)sc1-c1ccnc(C(C)(C)C(F)(F)F)c1 [Alpelisib] + C[C@]1(O)C[C@@H](c2nc(-c3ccc4ccc(-c5ccccc5)nc4c3)c3c(N)nccn32)C1 [Linsitinib] (partner 1 µM)
How it was run: as §1

Alpelisib + Lapatinib = compound: Cc1nc(NC(=O)N2CCC[C@H]2C(N)=O)sc1-c1ccnc(C(C)(C)C(F)(F)F)c1 [Alpelisib] + CS(=O)(=O)CCNCc1ccc(-c2ccc3ncnc(Nc4ccc(OCc5cccc(F)c5)c(Cl)c4)c3c2)o1 [Lapatinib] (partner 2 µM)
How it was run: as §1

OSI-027 + Pemetrexed = compound: COc1cccc2cc(-c3nc([C@H]4CC[C@H](C(=O)O)CC4)n4ncnc(N)c34)[nH]c12 [OSI-027] + Nc1nc2[nH]cc(CCc3ccc(C(=O)N[C@@H](CCC(=O)O)C(=O)O)cc3)c2c(=O)[nH]1 [Pemetrexed] (partner 0.2 µM)
How it was run: as §1

Cell Line | relative viability (OSI-027 + Foretinib; first compound 0.01 µM) | relative viability (OSI-027 + Foretinib; first compound 0.03162 µM) | relative viability (OSI-027 + Foretinib; first compound 0.1 µM) | relative viability (OSI-027 + Foretinib; first compound 0.3162 µM) | relative viability (OSI-027 + Foretinib; first compound 1 µM) | relative viability (Alpelisib + Linsitinib; first compound 0.04 µM) | relative viability (Alpelisib + Linsitinib; first compound 0.1265 µM) | relative viability (Alpelisib + Linsitinib; first compound 0.4 µM) | relative viability (Alpelisib + Linsitinib; first compound 1.265 µM) | relative viability (Alpelisib + Linsitinib; first compound 4 µM) | relative viability (Alpelisib + Lapatinib; first compound 0.04 µM) | relative viability (Alpelisib + Lapatinib; first compound 0.1265 µM) | relative viability (Alpelisib + Lapatinib; first compound 0.4 µM) | relative viability (Alpelisib + Lapatinib; first compound 1.265 µM) | relative viability (Alpelisib + Lapatinib; first compound 4 µM) | relative viability (OSI-027 + Pemetrexed; first compound 0.01 µM) | relative viability (OSI-027 + Pemetrexed; first compound 0.03162 µM) | relative viability (OSI-027 + Pemetrexed; first compound 0.1 µM) | relative viability (OSI-027 + Pemetrexed; first compound 0.3162 µM) | relative viability (OSI-027 + Pemetrexed; first compound 1 µM)
IA-LM | 1.21 | 0.992 | 0.729 | 0.807 | 0.136 | 0.565 | 0.424 | 0.829 | 0.616 | 0.493 | 0.977 | 0.802 | 0.842 | 0.708 | 0.74 | – | – | – | – | –
NCI-H1650 | 1.42 | 1.21 | 1.19 | 1.25 | 0.797 | – | – | – | – | – | 0.718 | 0.738 | 0.806 | 0.62 | 0.794 | 0.404 | 0.361 | 0.369 | 0.405 | 0.475
NCI-H322M | 0.942 | 0.93 | 0.764 | 0.654 | 0.517 | 0.914 | 0.953 | 0.868 | 0.836 | 0.75 | 0.535 | 0.666 | 0.518 | 0.361 | 0.423 | 0.602 | 0.608 | 0.633 | 0.556 | 0.519
SW 1573 | 0.753 | 0.923 | 0.713 | 0.59 | 0.787 | 0.919 | 0.826 | 0.725 | 0.685 | 0.547 | 1.06 | 1.06 | 1.06 | 1.09 | 0.873 | 0.817 | 0.982 | 0.852 | 0.771 | 0.343
HCC-827 | 1.19 | 1.03 | 0.991 | 0.855 | 0.411 | 0.942 | 0.979 | 1.04 | 0.925 | 0.924 | 0.19 | 0.192 | 0.211 | 0.179 | 0.188 | 0.259 | 0.23 | 0.276 | 0.264 | 0.242
LU99A | 0.75 | 0.763 | 0.685 | 0.517 | 0.302 | 0.501 | 0.477 | 0.548 | 0.427 | 0.311 | 0.873 | 0.917 | 1.02 | 0.666 | 0.56 | 0.181 | 0.362 | 0.173 | 0.239 | 0.159
LK-2 | 1.13 | 1.2 | 1.13 | 0.778 | 0.195 | 0.385 | 0.574 | 0.549 | 0.46 | 0.687 | 0.871 | 0.763 | 0.768 | 0.474 | 0.564 | 0.238 | – | 0.237 | 0.174 | 0.158
EMC-BAC-2 | 0.898 | 0.972 | 0.887 | 0.745 | 0.329 | 0.773 | 0.811 | 0.79 | 0.657 | 0.678 | 0.826 | 0.844 | 0.84 | 0.68 | 0.628 | 0.385 | 0.493 | 0.478 | 0.472 | 0.392
NCI-H2342 | 1.14 | 0.95 | 1.05 | 0.83 | 0.648 | – | – | – | – | – | – | – | – | – | – | 0.755 | 0.818 | 0.752 | 0.697 | 0.5
NCI-H460 | 1.06 | 0.762 | 1 | 0.948 | 0.582 | 0.716 | 0.722 | 0.516 | 0.261 | 0.284 | 1.02 | 0.948 | 1.03 | 0.662 | 0.439 | 0.0613 | 0.0659 | 0.0561 | 0.0523 | 0.0728
NCI-H441 | 1.09 | 0.859 | 0.842 | 0.823 | 0.538 | 0.734 | 0.403 | 0.698 | 0.524 | 0.492 | – | – | – | – | – | 0.259 | 0.213 | 0.285 | 0.255 | 0.251
NCI-H661 | 0.984 | 0.893 | 1.03 | 0.975 | 0.599 | 0.58 | 0.573 | 0.613 | 0.439 | 0.458 | 0.471 | 0.475 | 0.525 | 0.383 | 0.361 | 0.886 | 0.941 | 0.934 | 0.882 | 0.631
NCI-H727 | 0.601 | 1.03 | 0.863 | 0.812 | 0.398 | 0.292 | 0.306 | 0.388 | 0.27 | 0.177 | 0.831 | 0.766 | 0.906 | 0.578 | 0.443 | – | – | – | – | –
NCI-H1651 | 0.732 | 0.677 | 0.69 | 0.653 | 0.491 | 0.953 | 0.932 | 0.963 | 0.932 | 0.956 | 0.773 | 0.803 | 0.943 | 0.646 | 0.618 | 0.54 | 0.575 | 0.532 | 0.57 | 0.523
NCI-H1355 | 1.01 | 0.784 | 0.928 | 0.763 | 0.33 | 0.762 | 0.837 | 0.828 | 0.774 | 0.722 | 0.963 | 0.961 | 0.985 | 0.918 | 0.806 | 1.07 | 1.06 | 1 | 0.777 | 0.572
NCI-H1793 | 0.574 | 0.557 | 0.539 | 0.345 | 0.166 | 0.596 | 1.19 | 0.997 | 0.692 | 0.525 | 0.647 | 0.642 | 0.637 | 0.513 | 0.613 | 0.795 | 0.866 | 0.468 | 0.391 | 0.209
NCI-H1666 | 1 | 0.942 | 0.922 | 0.795 | 0.783 | 0.805 | 0.705 | 0.772 | 1.01 | 0.793 | 0.668 | 0.381 | 0.682 | 0.475 | 0.356 | 0.853 | 0.905 | 0.832 | 0.831 | 0.787
